For one data set, the system named is PC-3. The data set can be described thus: Antiproliferative activity against human PC-3 cells assessed as reduction in cell growth incubated for 72 hrs by SRB assay. Type of data set: functional, cell-based. To be noted: PC-3, 72 h. Background: The SRB assay estimates cell density from bound dye.
The subject of the next data set is U-87 MG. Put plainly: Antiproliferative activity against human U-87 MG cells assessed as reduction in cell growth incubated for 72 hrs by SRB assay. The format is functional, cell-based, U-87MG ATCC.
The nature of data set [1]: Binding affinity to HSP90 (unknown origin) assessed as dissociation constant by isothermal titration calorimetry. Also on record: species or system Homo sapiens. (Isothermal titration calorimetry measures the heat released or taken up as one component is titrated into another.)
A further data set deals with SK-BR-3. Put plainly: Antiproliferative activity against human SK-BR-3 cells assessed as reduction in cell growth incubated for 72 hrs by SRB assay. To be noted: SK-BR-3, 72 h. Type of data set: functional, cell-based.
Data set [2] is described as follows: Cytotoxicity against human HDF cells assessed as reduction in cell growth incubated for 72 hrs by SRB assay. The format is cell-based. The note with it: HDFa.
The nature of data set [3]: Selectivity index, ratio of IC50 for cytotoxicity against human HDF cells to IC50 for cytotoxicity against human SK-OV-3 cells.
Data set [4] in a line: Selectivity index, ratio of IC50 for cytotoxicity against human HDF cells to IC50 for cytotoxicity against human PC-3 cells. To be noted: HDF cells versus PC-3 cells, read-out: Ratio IC50. Type of data set: toxicity, cell-based.
Data set [5] can be described thus: Selectivity index, ratio of IC50 for cytotoxicity against human HDF cells to IC50 for cytotoxicity against human SK-BR-3 cells. Type of data set: toxicity, cell-based. To be noted: HDF cells versus SK-BR-3 cells, read-out: Ratio IC50.
A further data set concerns SK-OV-3. The data set can be described thus: Antiproliferative activity against human SK-OV-3 cells assessed as reduction in cell growth incubated for 72 hrs by SRB assay. Type of data set: functional, cell-based. To be noted: SK-OV-3, 72 h.
For the next data set, the system named is A549. The data set can be described thus: Antiproliferative activity against human A549 cells assessed as reduction in cell growth incubated for 72 hrs by SRB assay. The format is functional, cell-based. The note with it: A549, 72 h.
The nature of data set [6]: Selectivity index, ratio of IC50 for cytotoxicity against human HDF cells to IC50 for cytotoxicity against human A549 cells. Type of data set: toxicity, cell-based. To be noted: HDF cells versus A549 cells, read-out: Ratio IC50.
Data set [7] in a line: Selectivity index, ratio of IC50 for cytotoxicity against human HDF cells to IC50 for cytotoxicity against human U-87 MG cells. The format is toxicity, cell-based. To be noted: HDF cells versus U-87 MG cells, read-out: Ratio IC50.

As for `CO[C@@H](C=CC=C(C)C(N)=O)[C@@H](OC(N)=O)/C(C)=C/[C@H](C)[C@@H](O)[C@H](C[C@H](C)CC1=C(NCCO)C(=O)C=C(NCCO)C1=O)OC`, the 50% inhibitory concentration (IC50) – broadly, the concentration at which inhibition is half-maximal – was determined as 2130 nM in the data set on PC-3; 2040 nM in the data set on U-87 MG; 2080 nM in the data set with SK-BR-3; 4840 nM in [2]; 2660 nM in the data set with SK-OV-3; 2380 nM in the data set with A549. In addition, the dissociation constant (Kd) (usually a measure of binding affinity in units of concentration) in [1] came out at 134000 nM. In addition, the “Ratio IC50” value in [3] came to 1.82. In addition, the selectivity ratio in data set [4] came to 2.72; in [5] it was 2.33; in data set [6], 2.03; in data set [7], 3.42.

Regarding `CO[C@@H](C=CC=C(C)C(N)=O)[C@@H](OC(N)=O)/C(C)=C/[C@H](C)[C@@H](O)[C@H](C[C@H](C)CC1=C(NCCCCCCO)C(=O)C=C(NCCCCCCO)C1=O)OC`, the IC50 with PC-3 worked out at 11700 nM; with U-87 MG, 11400 nM; with SK-OV-3, 11900 nM; in the data set on A549, 11000 nM. In addition, the Kd in data set [1] was found to be 183000 nM. Further, the “Ratio IC50” value in data set [3] was 1.47. The figures for the selectivity ratio in data set [4], in data set [6] and in data set [7] were 1.48, 1.57 and 1.52, respectively.

Turning to `CO[C@@H](C=CC=C(C)C(N)=O)[C@@H](OC(N)=O)/C(C)=C/[C@H](C)[C@@H](O)[C@H](C[C@H](C)CC1=C(NCCOCCO)C(=O)C=C(NCCOCCO)C1=O)OC`, the half-inhibitory concentration (IC50) stood at 13000 nM in the data set with PC-3; 12600 nM with U-87 MG; 12000 nM with SK-BR-3; 31300 nM in data set [2]; 12400 nM with SK-OV-3; 11400 nM with A549. Besides, the “Ratio IC50” value in data set [3] amounted to 2.53. For the same compound, the selectivity ratio in [4] came to 2.41; in [5] it was 2.62; in data set [6], 2.73; in data set [7] it was 2.49.

With `CO[C@H]1/C=C\C=C(/C)C(=O)NC2=CC(=O)C(NC3CCN(Cc4ccccc4)CC3)=C(C[C@@H](C)C[C@H](OC)[C@H](O)[C@@H](C)/C=C(\C)[C@@H]1OC(N)=O)C2=O`, the IC50 in the data set with PC-3 worked out at 1010 nM; in the data set with U-87 MG, 1100 nM; in the data set with SK-BR-3, 1770 nM; in [2], 4880 nM; in the data set on SK-OV-3, 1850 nM; in the data set with A549, 1680 nM. Further, the “Ratio IC50” value in data set [3] worked out at 2.64. The selectivity ratio in data set [4] worked out at 4.83; in data set [5], 2.76; in data set [6], 2.9; in data set [7], 4.14.

For `CO[C@H]1/C=C\C=C(/C)C(=O)NC2=CC(=O)C(NCc3cccc(N4CCOC4=O)c3)=C(C[C@@H](C)C[C@H](OC)[C@H](O)[C@@H](C)/C=C(\C)[C@@H]1OC(N)=O)C2=O`, the half-maximal inhibitory concentration (IC50) in the data set with PC-3 was 3210 nM; in the data set with U-87 MG, 3180 nM; in the data set with SK-BR-3 it was 3390 nM; in data set [2] it was 11300 nM; in the data set on SK-OV-3, 3030 nM; in the data set on A549, 3730 nM. In [3], the “Ratio IC50” value was found to be 3.72. Also, the selectivity ratio stood at 3.51 in data set [4], 3.13 in data set [5], 3.02 in data set [6] and 3.55 in data set [7].

Consider `CO[C@@H](/C=C/C=C(/C)C(N)=O)[C@@H](OC(N)=O)/C(C)=C/[C@H](C)[C@@H](O)[C@H](C[C@H](C)CC1=C(NCCCCO)C(=O)C=C(NCCCCO)C1=O)OC`, for which the IC50 turned out to be 4530 nM in the data set with PC-3; 4070 nM in the data set with U-87 MG; 4210 nM in the data set with SK-BR-3; 6360 nM in data set [2]; 4270 nM with SK-OV-3; 4110 nM with A549. In addition, the “Ratio IC50” value in data set [3] came to 1.49. The selectivity ratio stood at 1.4 in data set [4], 1.51 in data set [5], 1.55 in data set [6] and 1.56 in data set [7].

For `CO[C@H]1/C=C\C=C(/C)C(=O)NC2=CC(=O)C(NC3CCN(S(C)(=O)=O)CC3)=C(C[C@@H](C)C[C@H](OC)[C@H](O)[C@@H](C)/C=C(\C)[C@@H]1OC(N)=O)C2=O`, the IC50 was determined as 2010 nM with PC-3; 2330 nM with U-87 MG; 2190 nM in the data set on SK-BR-3; 6420 nM in [2]; 2490 nM in the data set on SK-OV-3; 2930 nM in the data set on A549. Moreover, the “Ratio IC50” value in data set [3] amounted to 2.58. Further, the selectivity ratio in data set [4] was determined as 3.19; in data set [5], 2.93; in [6], 2.19; in data set [7], 2.76.

Consider `CO[C@H]1/C=C\C=C(/C)C(=O)NC2=CC(=O)C(NCCO)=C(C[C@@H](C)C[C@H](OC)[C@H](O)[C@@H](C)/C=C(\C)[C@@H]1OC(N)=O)C2=O`, for which the IC50 was found to be 1370 nM in the data set with PC-3; 1250 nM in the data set on U-87 MG; 1130 nM with SK-BR-3; 3970 nM in data set [2]; 1110 nM in the data set on SK-OV-3; 1050 nM in the data set on A549. In addition, the “Ratio IC50” value in data set [3] was 3.58. In addition, the selectivity ratio in [4] was determined as 2.9; in data set [5] it was 3.51; in data set [6], 3.78; in data set [7], 3.18.

Consider `CO[C@H]1/C=C\C=C(/C)C(=O)NC2=CC(=O)C(NCCN3CCCC3=O)=C(C[C@@H](C)C[C@H](OC)[C@H](O)[C@@H](C)/C=C(\C)[C@@H]1OC(N)=O)C2=O`, for which the IC50 in the data set on PC-3 was determined as 1830 nM; with U-87 MG it was 1770 nM; in the data set with SK-BR-3 it was 2050 nM; in [2] it was 2880 nM; with SK-OV-3 it was 1540 nM; with A549 it was 1600 nM. For the same compound, in data set [3], the “Ratio IC50” value is listed as 1.87. Moreover, the selectivity ratio in data set [4] is 1.57; in data set [5] it was 1.4; in data set [6] it was 1.8; in [7] it was 1.63.

For `CO[C@H]1/C=C\C=C(/C)C(=O)NC2=CC(=O)C(NCc3cccc(CS(=O)(=O)N(C(C)C)C(C)C)c3)=C(C[C@@H](C)C[C@H](OC)[C@H](O)[C@@H](C)/C=C(\C)[C@@H]1OC(N)=O)C2=O`, the IC50 stood at 2750 nM in the data set on PC-3; 2390 nM in the data set on U-87 MG; 2480 nM in the data set on SK-BR-3; 5370 nM in [2]; 2050 nM in the data set on SK-OV-3; 2970 nM in the data set with A549. Further, the “Ratio IC50” value in [3] was 2.62. Also, the selectivity ratio turned out to be 1.95 in data set [4], 2.17 in data set [5], 1.81 in data set [6] and 2.25 in data set [7].

On to `CO[C@@H](/C=C/C=C(/C)C(N)=O)[C@@H](OC(N)=O)/C(C)=C/[C@H](C)[C@@H](O)[C@H](C[C@H](C)CC1=C(NCCCN2CCCC2)C(=O)C=C(NCCCN2CCCC2)C1=O)OC`, for which the IC50 in the data set on PC-3 is 9070 nM; in the data set with U-87 MG, 8490 nM; in the data set with SK-BR-3, 8260 nM; in [2] it was 20600 nM; in the data set on SK-OV-3, 9410 nM; with A549, 8110 nM. For the same compound, in data set [3], the “Ratio IC50” value came out at 2.19. Besides, the selectivity ratio in data set [4] came to 2.27; in data set [5], 2.49; in data set [6], 2.54; in data set [7], 2.43.

Take `CO[C@H]1/C=C\C=C(/C)C(=O)NC2=CC(=O)C(NCc3ccccc3F)=C(C[C@@H](C)C[C@H](OC)[C@H](O)[C@@H](C)/C=C(\C)[C@@H]1OC(N)=O)C2=O`: the half-inhibitory concentration (IC50) in the data set with PC-3 is 1520 nM; in the data set with U-87 MG it was 1040 nM; with SK-BR-3 it was 1840 nM; in [2] it was 2690 nM; in the data set on SK-OV-3, 1350 nM; with A549, 1130 nM. In addition, in data set [3], the “Ratio IC50” value is recorded as 1.99. Besides, the selectivity ratio in data set [4] worked out at 1.77; in data set [5], 1.46; in data set [6], 2.38; in data set [7] it was 2.59.

Consider `CCOC(=O)[C@@H](N)CCCCNC1=C2C[C@@H](C)C[C@H](OC)[C@H](O)[C@@H](C)/C=C(\C)[C@H](OC(N)=O)[C@@H](OC)/C=C\C=C(/C)C(=O)NC(=CC1=O)C2=O`, for which the IC50 in the data set with PC-3 came out at 1260 nM; in the data set on U-87 MG, 1050 nM; in the data set with SK-BR-3, 1370 nM; in data set [2] it was 3190 nM; in the data set with SK-OV-3, 1090 nM; in the data set with A549, 1390 nM. The “Ratio IC50” value in data set [3] came out at 2.93. Further, the selectivity ratio was found to be 2.53 in data set [4], 2.33 in data set [5], 2.29 in data set [6] and 3.04 in data set [7].

Regarding `Nc1ccn([C@@H]2O[C@H](CO)[C@@H](O)[C@@H]2O)c(=O)n1` [CYTARABINE], the IC50 was determined as 810 nM in the data set with PC-3; 850 nM with U-87 MG; 870 nM in the data set with SK-BR-3; 5940 nM in [2]; 990 nM with SK-OV-3; 830 nM in the data set on A549. For the same compound, the “Ratio IC50” value in data set [3] is 6. Further, the selectivity ratio was determined as 7.33 in data set [4], 6.83 in data set [5], 7.16 in data set [6] and 6.99 in data set [7].

The values above are taken from ChEMBL document CHEMBL4765380, “Synthesis, structure and anticancer activity of new geldanamycin amine analogs containing C(17)- or C(20)- flexible and rigid arms as well as closed or open ansa-bridges” (Eur J Med Chem, 2020).
